We go through four compounds from US20230364102A1, “COMPOSITIONS AND METHODS FOR THE TREATMENT OF NEUROLOGICAL DISORDERS” (Duke University, priority 2020, published 2023).

Experiment [1] concerns ATM pSer1981. In words: Western blot of ATM pSer1981 in HEK293 cells. In kind it is cell-based, human. The following applies: 100 nM, 24 h vs vehicle. For orientation: Immunoblotting shows a protein as a band on a membrane.
In experiment [2] the test system is LRRK2 G2019S patient-derived cells. Kind of experiment: mtDNA damage in LRRK2 G2019S patient-derived cells. To be noted: 24 h, 1 μM, n=3. In kind it is cell-based, human. As for the experimental part:
(§1) This example describes how mitochondrial DNA damage was measured using a quantitative PCR-based assay as described above. The following reagents and protocol steps as disclosed in Sanders et al., Curr Protoc Toxicol. 2018 May; 76(1): e50, doi: 10.1002/cptx.50 and also in U.S. Pat. No. 11,001,890. The entire contents of said publication and patent are herein incorporated by reference.
(§2) Make a master mix if several samples are being run simultaneously. […]
(§3) Perform the PCR reaction using the PCR amplification profile is as follows for the large mitochondrial PCR product using the KAPA LongRange Hot Start kit: • Melting: 94° C. for 3 min • Amplification: the optimized number of cycles (26-28) of melting (94° C. for 15 sec) and annealing (66° C. for 12 min). • Final extension: To complete the profile and finalize amplification of products, perform a final extension for 10 min at 72° C. • Holding: Hold at 4° C. until products are removed for quantification. […]
(§4) (1) Add 10 μL of each PCR product and 90 μL of TE buffer to each of triplicate wells. […] Follow steps 6, 7 and 8 in Support Protocol 2 for fluorescent quantification of DNA.
(§5) Normalize large mitochondrial PCR product fluorescence values for copy number differences using the small mitochondrial PCR product. […] This is the normalized large mitochondrial fluorescence value (A. M. Furda, Bess, Meyer, & Van Houten, 2012a). […]

Experiment [3] deals with human LRRK2 G2019S or GFP expressing neuronal cultures. In words: QPCR-based mtDNA damage assay in primary midbrain neuronal cultures expressing human LRRK2 G2019S. In kind it is cell-based. The following applies: treated for 6 h.
Description: Divide the normalized fluorescence values of each sample by the average normalized fluorescence value to get a ratio. […]
The test system of experiment [4] is primary rat midbrain neurons. Kind of experiment: Rotenone-induced mtDNA damage in primary midbrain neurons. In kind it is cell-based. To be noted: pre-treated for 24 h before rotenone. As for the experimental part:
as §1, §2, §3, §4, §5

In experiment [5] the test system is ATM pSer1981. To be noted: following treatment with the neurotoxin; cited from earlier work.

Turning to `C=C(C)[C@H]1Cc2c(ccc3c2O[C@@H]2COc4cc(OC)c(OC)cc4[C@@H]2C3=O)O1` [rotenone], the “ATM pSer1981 (kinase active) level” value is “increased ATM pSer1981 levels” in the experiment with ATM pSer1981 [1] and “increased levels of ATM pSer1981” in the experiment on ATM pSer1981 [1] (listed as Rotenone). In the case of `C[C@@H]1CN(CC(=O)Nc2ccc3c(c2)Cc2cccc(-c4cc(=O)cc(N5CCOCC5)o4)c2S3)C[C@H](C)O1` [KU60019], in experiment [2], the mtDNA damage entry is recorded as “sufficient to reverse mtDNA damage”. For the compound `CCNc1nc(Nc2cc(F)c(C(=O)N3CCOCC3)cc2OC)ncc1C(F)(F)F` [GNE-7915], in experiment [3], the “mtDNA damage (mtDNA integrity)” value is given as “restored mtDNA integrity”. The “prevention of rotenone induced mtDNA damage” value in experiment [4] was “able to prevent rotenone induced mtDNA damage”.

Take `C[n+]1ccc(-c2ccccc2)cc1` [MPP+]: in the experiment on ATM pSer1981 [5], the “expression of ATM pSer1981” value is recorded as “increased”.
